Our source for the GI50 and TGI values is PubChem BioAssay (NCI).

“And” between values parts separate entries of the source, which are not always exact repeats. Equal entries are not always repeated.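 Cells were grown in 96-well plates and exposed to each compound for 48 hours at five concentrations; endpoints were interpolated linearly between bracketing concentrations, or set to the highest concentration if not reached. The concentration for 50% growth inhibition is given as GI50. TGI marks complete inhibition of growth.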 *1 amine or outer side, *2 acyl side, *3 side chain or, on linkers, in order; H or OH if unused. Where a SMILES comes first, the peptide text is derived from it. Bridges are numbered along the chain shown (N, C = ends). [ ]: non-standard residue; d: D form. X59 = COc1c(N[*:1])cccc1C(=O)O[C@H](C(=O)[C@H](C)C(=O)[*:2])C(C)C; X58 = CC(C)C[C@H](C(=O)[*:2])C(C)C(=O)C1CCCN1[*:1]; NMeY = CN[C@@H](Cc1ccc(O)cc1)C(=O)O; Lac = C[C@H](O)C(=O)O A value given as a limit tells only on which side of the number the result lay.

Among the test systems are ACHN renal; EKVX NSCLC; HOP-92 NSCLC; IGROV1 ovarian; MCF7 breast; MOLT-4 leukemia; RPMI-8226 leukemia; SK-MEL-2 melanoma; SK-MEL-5 melanoma; SNB-75 CNS; SW-620 colon; T-47D breast; UACC-62 melanoma.
What all share (experiment): inhibition of tumour cell growth, NCI panel, 48 h

As for `C=CCN1C(=O)/C(=C/c2ccc(OC)cc2)N=C1SC1OC(COC(C)=O)C(OC(C)=O)C(OC(C)=O)C1OC(C)=O` (stereo unspecified), the GI50 was 15.4 µM and 77.3 µM in the test with ACHN renal; 20.4 µM and 75.4 µM in the test on IGROV1 ovarian; 11.7 µM and > 100 µM in the test on MCF7 breast; 58.3 µM and 24.7 µM in the test on MOLT-4 leukemia; 21.1 µM and 51.7 µM in the test with SK-MEL-2 melanoma; 18.8 µM and 43.6 µM with UACC-62 melanoma. Also, the TGI in the test with ACHN renal was 32.3 µM and > 100 µM; in the test on EKVX NSCLC, 46 µM and > 100 µM; with HOP-92 NSCLC, 46.4 µM and 59.4 µM; in the test with IGROV1 ovarian it was over 100 µM; in the test on MCF7 breast, over 100 µM; in the test with MOLT-4 leukemia, over 100 µM. Besides, the TGI in the test with RPMI-8226 leukemia is over 100 µM; in the test on SK-MEL-2 melanoma, 54.8 µM and > 100 µM; in the test with SK-MEL-5 melanoma, 45.2 µM and > 100 µM; in the test with SNB-75 CNS it was 40.7 µM and > 100 µM; in the test with SW-620 colon it was over 100 µM; with T-47D breast, 67.5 µM. The TGI in the test with UACC-62 melanoma is 48.1 µM and > 100 µM.
Take `O=C(/C=C/c1ccc(O)cc1)c1cc(-c2cc(CCC(=O)c3ccc(O)cc3O)ccc2O)c(O)cc1O`: the TGI with ACHN renal, with EKVX NSCLC, in the test on HOP-92 NSCLC, in the test on IGROV1 ovarian, in the test on MCF7 breast and in the test on MOLT-4 leukemia was over 50 µM throughout. Further, the TGI with RPMI-8226 leukemia was over 50 µM; with SK-MEL-2 melanoma, over 50 µM; in the test on SK-MEL-5 melanoma it was over 50 µM; in the test on SNB-75 CNS it was 41.7 µM; with SW-620 colon it was over 50 µM; in the test on T-47D breast it was over 50 µM. In the test with UACC-62 melanoma, this compound returned a TGI of over 50 µM.
In the case of `COc1ccc2c(c1)C1c3ccccc3CCN1CCC2` (stereo unspecified), the TGI with ACHN renal, in the test with EKVX NSCLC, in the test with HOP-92 NSCLC, in the test with IGROV1 ovarian, in the test with MCF7 breast and in the test with MOLT-4 leukemia was over 100 µM in each case. In addition, the TGI with RPMI-8226 leukemia was 96.8 µM; in the test with SK-MEL-2 melanoma, 70.8 µM; in the test on SK-MEL-5 melanoma it was over 100 µM; with SNB-75 CNS, 64.2 µM; in the test on SW-620 colon, over 100 µM; in the test on T-47D breast it was over 100 µM. This compound returned a TGI with UACC-62 melanoma of over 100 µM.
As to `COc1ccc(C[C@H]2C(=O)O[C@H](C)[C@H](NC(=O)[C@@H](CC(C)C)C(C)C(=O)C3CCCN3C(=O)[C@H](C)O)C(=O)Nc3cccc(c3OC)C(=O)O[C@@H](C(C)C)C(=O)[C@H](C)C(=O)N[C@@H](CC(C)C)C(=O)N3CCC[C@H]3C(=O)N2C)cc1` (stereo partly specified) (H-[Lac][X58]T[X59]LP[NMeY](Me); ester 3-C), the TGI in the test on ACHN renal, in the test with EKVX NSCLC, in the test on HOP-92 NSCLC, in the test with IGROV1 ovarian, in the test on MCF7 breast and in the test on MOLT-4 leukemia was over 12.5 µM throughout. For the same compound, the TGI in the test on RPMI-8226 leukemia was 10.8 µM; with SK-MEL-2 melanoma it was over 12.5 µM; with SK-MEL-5 melanoma, over 12.5 µM; with SNB-75 CNS, over 12.5 µM; in the test on SW-620 colon, over 12.5 µM; with T-47D breast, over 12.5 µM. In addition, in the test with UACC-62 melanoma, the TGI was over 12.5 µM.
For `C=C1C(=O)OC2/C=C(\C)CC/C=C(\C)CC(OC(=O)/C(=C/CO)CO)[C@@H]12` (stereo partly specified), the TGI in the test on ACHN renal amounted to 19.3 µM; in the test with EKVX NSCLC, 29 µM; with HOP-92 NSCLC, 13.5 µM; with IGROV1 ovarian it was 26.1 µM; in the test on MCF7 breast it was 22.9 µM; in the test with MOLT-4 leukemia, 5.55 µM. The TGI with RPMI-8226 leukemia was 5.74 µM; in the test on SK-MEL-2 melanoma, 34.6 µM; with SK-MEL-5 melanoma, 26.1 µM; with SNB-75 CNS, 29.8 µM; in the test on SW-620 colon, 3.36 µM; with T-47D breast, 15.9 µM. Besides, the TGI with UACC-62 melanoma came to 34.2 µM. Also, in the test with MOLT-4 leukemia, the GI50 is 1.92 µM.
As to `Cc1c(-c2ccccc2)c(C#N)c2nnn(C)c(=O)n12`, the TGI in the test with ACHN renal, in the test with EKVX NSCLC, with HOP-92 NSCLC, in the test with IGROV1 ovarian, with MCF7 breast and with RPMI-8226 leukemia was over 100 µM in each case. Moreover, the TGI in the test on SK-MEL-2 melanoma, in the test with SK-MEL-5 melanoma, with SNB-75 CNS, with SW-620 colon, in the test with T-47D breast and with UACC-62 melanoma was over 100 µM in each case.
As to `Brc1ccc(N=Nc2ccc3ccccc3n2)cc1`, the TGI in the test with ACHN renal was 31.2 µM; in the test on EKVX NSCLC it was over 100 µM; with HOP-92 NSCLC, over 100 µM; in the test with IGROV1 ovarian it was 65.5 µM; with MCF7 breast it was over 100 µM; in the test on RPMI-8226 leukemia, over 100 µM. For the same compound, the TGI with SK-MEL-2 melanoma is over 100 µM; with SK-MEL-5 melanoma, over 100 µM; in the test with SNB-75 CNS it was 40.6 µM; in the test with SW-620 colon, over 100 µM; in the test with T-47D breast, over 100 µM; in the test with UACC-62 melanoma it was 43.5 µM.
For the compound `COC(=O)C1=C(C(=O)OC)C(OO)(c2ccccc2)OC1=O` (stereo unspecified), the TGI with ACHN renal, with EKVX NSCLC, in the test with HOP-92 NSCLC, in the test on IGROV1 ovarian, in the test with MCF7 breast and with MOLT-4 leukemia was over 100 µM throughout. The TGI with SK-MEL-2 melanoma, with SK-MEL-5 melanoma, in the test with SNB-75 CNS, with SW-620 colon, in the test with T-47D breast and with UACC-62 melanoma was over 100 µM each time.
In the case of `CC(CC(C)[C@H]1CCC2[C@H]3C(CC(=O)[C@@]21C)[C@@]1(C)CCC(O)C[C@H]1C[C@@H]3O)C(=O)O` (stereo partly specified), the TGI in the test with ACHN renal, in the test on EKVX NSCLC, with HOP-92 NSCLC, in the test with IGROV1 ovarian, in the test with MCF7 breast and with MOLT-4 leukemia was over 100 µM each time. The TGI with RPMI-8226 leukemia, in the test with SK-MEL-2 melanoma, in the test with SNB-75 CNS, in the test with SW-620 colon, in the test on T-47D breast and in the test with UACC-62 melanoma was over 100 µM throughout.
Consider `CCOC(=O)C(C)c1nc2cc(C(F)(F)F)ccc2[nH]c1=O` (stereo unspecified), for which the TGI with ACHN renal, in the test with EKVX NSCLC, with HOP-92 NSCLC, in the test on MCF7 breast, in the test with MOLT-4 leukemia and in the test on RPMI-8226 leukemia was over 100 µM in each case. Moreover, the TGI in the test with SK-MEL-2 melanoma is over 100 µM; in the test with SK-MEL-5 melanoma it was over 100 µM; with SNB-75 CNS, over 100 µM; in the test on SW-620 colon it was over 100 µM; in the test with T-47D breast, 67.7 µM; with UACC-62 melanoma, over 100 µM.
Turning to `CC(C)N(C(=O)C12C3(C(=O)C(C)(C)C)C4C5(C#N)C3C1(C(=O)C(C)(C)C)C5C42C(=O)C(C)(C)C)C(C)C` (stereo unspecified), the TGI in the test with ACHN renal, in the test on EKVX NSCLC, in the test on HOP-92 NSCLC, with IGROV1 ovarian, with MCF7 breast and in the test on MOLT-4 leukemia was over 100 µM in each case. In addition, the TGI in the test on SK-MEL-2 melanoma was over 100 µM; with SK-MEL-5 melanoma it was over 100 µM; in the test with SNB-75 CNS it was 91 µM; in the test on SW-620 colon, over 100 µM; in the test on T-47D breast it was over 100 µM; in the test on UACC-62 melanoma it was over 100 µM.
As to `N#CCCN(CCCN(C(=O)Nc1ccc(NC(=O)N(CCCN(CCC#N)C(N)=O)c2ccccc2)cc1)c1ccccc1)C(N)=O`, the TGI in the test on ACHN renal, with EKVX NSCLC, with HOP-92 NSCLC, with MCF7 breast, in the test with MOLT-4 leukemia and in the test on RPMI-8226 leukemia was over 100 µM each time. For the same compound, the TGI with SK-MEL-2 melanoma, with SK-MEL-5 melanoma, in the test with SNB-75 CNS, with SW-620 colon, with T-47D breast and in the test on UACC-62 melanoma was over 100 µM throughout.
For `CN(C(=O)c1cc2c(s1)sc1c(=O)n(C)c3ccccc3c12)c1ccccc1`, the TGI in the test on ACHN renal was 66.6 µM; with EKVX NSCLC it was over 100 µM; in the test on HOP-92 NSCLC it was over 100 µM; in the test with IGROV1 ovarian it was over 100 µM; with MCF7 breast it was over 100 µM; with MOLT-4 leukemia, over 100 µM. Further, the TGI in the test with SK-MEL-2 melanoma, in the test with SK-MEL-5 melanoma, in the test with SNB-75 CNS, with T-47D breast and in the test with UACC-62 melanoma was over 100 µM in each case.
Regarding `COC(=O)/C(C#N)=C(/NCc1ccccc1)Nc1ccccc1`, the TGI in the test with ACHN renal, with EKVX NSCLC, in the test with HOP-92 NSCLC, in the test on IGROV1 ovarian, in the test with MCF7 breast and in the test on MOLT-4 leukemia was over 100 µM each time. The TGI in the test on RPMI-8226 leukemia, in the test on SK-MEL-2 melanoma, in the test on SK-MEL-5 melanoma, in the test with SNB-75 CNS, with SW-620 colon and in the test with T-47D breast was over 100 µM each time.
Consider `Cc1ccccc1C1CC(=O)CC(c2ccccc2C)C12C(=O)NC(=S)NC2=O` (stereo unspecified), for which the TGI in the test with ACHN renal is 38.6 µM; in the test with EKVX NSCLC, over 100 µM; with HOP-92 NSCLC it was over 100 µM; in the test on MCF7 breast, over 100 µM; with MOLT-4 leukemia it was over 100 µM; in the test with RPMI-8226 leukemia, 38.6 µM. Also, the TGI was 40.3 µM with SK-MEL-2 melanoma; 32.7 µM with SK-MEL-5 melanoma; 70.7 µM in the test with SNB-75 CNS; 90.4 µM in the test with SW-620 colon; over 100 µM in the test on T-47D breast; 38.2 µM in the test with UACC-62 melanoma.
